{
  "source": "the OPERA property sets (Mansouri et al. 2018)",
  "data": [
    {"conditions": "not given", "units": {"solubility": "mM"}, "values": [
      {"smiles": "CC1=CCCN1C", "solubility": 1340},
      {"smiles": "CCC(Br)(Br)C(=O)O", "solubility": 134},
      {"smiles": "O=C(c1ccco1)N(O)c1ccccc1", "solubility": 0.64},
      {"smiles": "C=CC(O)C(=O)OCC", "note": "(stereo not given)", "solubility": 2310},
      {"smiles": "O=C1OCc2ccc3ccccc3c21", "solubility": 0.494},
      {"smiles": "CCOCCOC(=O)CCCCC(=O)OCCOCC", "solubility": 8.61},
      {"smiles": "CCN(CC)C(=O)N(CC)CC", "solubility": 232},
      {"smiles": "Cc1cc(N)n(-c2ccccc2)n1", "solubility": 115},
      {"smiles": "O=C(c1ccccc1I)N(O)c1ccccc1", "solubility": 0.295},
      {"smiles": "NNC(=O)[C@H](O)[C@@H](O)[C@H](O)[C@H](O)CO", "solubility": 317},
      {"smiles": "CCC(CC)C(=O)N(CC)CC", "solubility": 81.7},
      {"smiles": "CCNC(CC)C(=O)O", "note": "(stereo not given)", "solubility": 381},
      {"smiles": "Nc1ccc(CC(=O)c2ccccc2)cc1", "solubility": 15.7},
      {"smiles": "COCCOC(=O)CCCCC(=O)OCCOC", "solubility": 54.1},
      {"smiles": "CC1NC(=O)CNC1=O", "note": "(stereo not given)", "solubility": 1950},
      {"smiles": "O=[N+]([O-])CCl", "solubility": 524},
      {"smiles": "O=C(O)C(S)CS", "note": "(stereo not given)", "solubility": 579},
      {"smiles": "CCC1OCCO1", "solubility": 1960},
      {"smiles": "CC12CCC(CC1=O)C(C)(C)O2", "note": "(stereo not given)", "solubility": 119},
      {"smiles": "CC(C)CCOCC(O)COCCC(C)C", "solubility": 43},
      {"smiles": "CCN(CC)CCSCCN(CC)CC", "solubility": 4.3},
      {"smiles": "COC(=O)CCCCCCCCC(=O)OC", "solubility": 0.521},
      {"smiles": "CCOC(=O)C(CC(=O)O)=C(c1ccccc1)c1ccccc1", "solubility": 6.44},
      {"smiles": "C1COC2(C1)CCCO2", "solubility": 780},
      {"smiles": "COCC(=O)c1ccccc1", "solubility": 173},
      {"smiles": "CC1(C)CC(C(=O)O)C(C)(C)N1", "note": "(stereo not given)", "solubility": 2920},
      {"smiles": "CC(C)CC(c1ccc(O)cc1)c1ccc(O)cc1", "solubility": 0.429},
      {"smiles": "CN(C)C1CCC=CCCC1", "note": "(stereo not given)", "solubility": 25.1},
      {"smiles": "CCCOC(=O)C(C)(C)O", "solubility": 684},
      {"smiles": "O=S(=O)(O)c1cnc[nH]1", "solubility": 1350},
      {"smiles": "CNCCC(=O)O", "solubility": 882},
      {"smiles": "CCCCOCCOCCOC(N)=O", "solubility": 487},
      {"smiles": "O=C(O)CC1(CC(=O)O)OCOC1=O", "solubility": 245}
    ]},
    {"conditions": "20 °C", "units": {"solubility": "mM"}, "values": [
      {"smiles": "Cc1ccc(O)c(CO)c1", "solubility": 485},
      {"smiles": "O=C1C=Cc2ccccc2C1=NO", "solubility": 1.16},
      {"smiles": "O=C(O)CC(SC(CC(=O)O)C(=O)O)C(=O)O", "note": "(stereo not given)", "solubility": 323},
      {"smiles": "CC(=O)Nc1ccc(Br)cc1C", "solubility": 17.5},
      {"smiles": "COc1ccc(C(=O)O)cc1C(=O)O", "solubility": 0.765},
      {"smiles": "Nc1ncc2[nH]cnc2n1", "solubility": 61.7},
      {"smiles": "O=C(OCCO)c1ccccc1O", "solubility": 69.7},
      {"smiles": "CC(=O)Nc1ccc(/C=N/NC(N)=S)cc1", "solubility": 0.372},
      {"smiles": "O=C(O)C=C(Br)Br", "solubility": 146},
      {"smiles": "Cc1ccc2[nH]c(=O)c(=O)[nH]c2c1", "solubility": 0.908},
      {"smiles": "O=c1cc[nH]cn1", "solubility": 3850},
      {"smiles": "Sc1nnc(S)s1", "solubility": 176},
      {"smiles": "COc1ccccc1C(N)=O", "solubility": 16.5},
      {"smiles": "NC(=O)CBr", "solubility": 1160},
      {"smiles": "CSc1cc(O)cc(O)c1", "solubility": 16},
      {"smiles": "O=C(O)c1c(Cl)ccc2ccccc12", "solubility": 4.84},
      {"smiles": "C=CCCCN=C=S", "solubility": 1.26},
      {"smiles": "CCC(CC)(CC)NC(N)=O", "solubility": 15.2},
      {"smiles": "FC(F)(F)c1nc2ncncc2[nH]1", "solubility": 354},
      {"smiles": "NC(N)=N/C(N)=N/c1cccc2ccccc12", "solubility": 4.84},
      {"smiles": "O=S(=O)(CCCl)CCCl", "solubility": 31.4},
      {"smiles": "O=C(O)c1cccc2ncccc12", "solubility": 2.1},
      {"smiles": "CC(C)(C(=O)O)C(C)(CC(=O)O)C(=O)O", "note": "(stereo not given)", "solubility": 774},
      {"smiles": "Nc1ncnc2c1ncn2[C@@H]1O[C@H](COP(=O)(O)O)[C@@H](O)[C@H]1O", "solubility": 28.8},
      {"smiles": "O=C(CCCCC(=O)NCCO)NCCO", "solubility": 2580},
      {"smiles": "c1ccc2c3c(ccc2c1)Sc1ccc2ccccc2c1N3", "solubility": "1.24e-05"},
      {"smiles": "NC(N)=Nc1nc2ccccc2s1", "solubility": 3.62},
      {"smiles": "CCOC(=O)c1[nH]c(C=O)c(CC)c1C", "solubility": 1.91},
      {"smiles": "Nc1c(S(=O)(=O)O)cc(S(=O)(=O)O)c2ccc(S(=O)(=O)O)cc12", "solubility": 480},
      {"smiles": "CCC1(CC)C(=O)NC(=O)N=C1N", "solubility": 40.1},
      {"smiles": "Clc1cnc2ncncc2n1", "solubility": 75},
      {"smiles": "O=C(O)c1ccc(Cl)o1", "solubility": 19.1},
      {"smiles": "CC(=O)CC1=NCCS1", "solubility": 69.8},
      {"smiles": "CCOC(=O)c1ccccc1C(=O)c1ccccc1", "solubility": 0.393},
      {"smiles": "O=C(O)C1=CCCCC1", "solubility": 55.5},
      {"smiles": "Oc1ccc2c(c1)Sc1ccccc1N2", "solubility": 2.66},
      {"smiles": "O=S(=O)(c1ccccc1)N1CCCCC1", "solubility": 2.91},
      {"smiles": "ClCCOCOCCCl", "solubility": 45.1},
      {"smiles": "CC1(c2ccccc2)C(=O)NC(=O)NC1=O", "solubility": 3.48},
      {"smiles": "CC(C)COC(=O)c1c(C(=O)O)cccc1[N+](=O)[O-]", "solubility": 0.898},
      {"smiles": "COCc1ccc(C=O)o1", "solubility": 317},
      {"smiles": "COC(=O)c1ccc([N+](=O)[O-])cc1C(=O)O", "solubility": 8.79},
      {"smiles": "NC(=S)Nc1cccc([N+](=O)[O-])c1", "solubility": 35.5},
      {"smiles": "O=C(O)C(I)=C(Br)I", "solubility": 51.4},
      {"smiles": "CCOC(=O)c1[nH]c(C)cc1C", "solubility": 2.39},
      {"smiles": "O=[N+]([O-])c1ccccc1CO", "solubility": 32.7},
      {"smiles": "O=[N+]([O-])c1ccc(CO)cc1", "solubility": 13.1},
      {"smiles": "CC(=O)Nc1ccc(F)cc1C", "solubility": 43.7},
      {"smiles": "NC1=NC(C(=O)O)CCS1", "note": "(stereo not given)", "solubility": 187},
      {"smiles": "CC=CC(=O)Nc1ccc(O)cc1", "solubility": 2.26},
      {"smiles": "CCCc1ncnc2c(O)cccc12", "solubility": 1.2},
      {"smiles": "CCCCC1(CCCC)C(=O)NC(=O)NC1=O", "solubility": 1.33}
    ]}
  ]
}
